Experimental data: patent publication EP4417201A1, “PHARMACEUTICAL COMPOSITIONS FOR USE IN CANCER TREATMENT” (Robert Bosch Gesellschaft für medizinische Forschung mbH, priority 2023, dated 2024)

Target: T1, purified porcine tubulin (Sus scrofa, UniProt P02550+P02554)
T1 construct: purchased Cytoskeleton, Denver, CO, USA BK006P
Assay: Tubulin polymerization assay
Assay type: biochemical
Conditions: 10 µM, absorbance at 340 nm, 35°C
Procedure: A tubulin polymerization assay kit (part# BK006P, Cytoskeleton, Denver, CO, USA) was used to address the direct effects of chemical compounds on tubulin polymerization dynamics. A porcine >99% pure tubulin preparation (3 mg/ml) free of microtubule-associated proteins in 80 mM PIPES pH 6.9, 2 mM MgCl2, 0.5 mM EGTA, 1 mM GTP, and 10.2% glycerol was incubated with Formula A-1 (100 µM), Formula A-2(100 µM), paclitaxel (10 µM), or buffer. Microtubule polymerization was initiated by tubulin addition; changes in microtubule turbidity were measured kinetically at 340 nm at 35°C (EnSpire Multimode Plate Reader 2300, PerkinElmer).
To determine whether the influence of compounds of Formula A-1 and Formula A-2 on microtubule formation was due to on-target activity, the direct effect of chalcone compounds of Formula A on tubulin polymerization rates was examined by incubation of purified porcine tubulin with Formula A-1 or Formula A-2 and comparison of the results with those of paclitaxel, a well-established microtubule-stabilizing agent. Microtubule formation was measured kinetically at an absorbance of 340 nm.

T1 sequence (P02550 whole entry): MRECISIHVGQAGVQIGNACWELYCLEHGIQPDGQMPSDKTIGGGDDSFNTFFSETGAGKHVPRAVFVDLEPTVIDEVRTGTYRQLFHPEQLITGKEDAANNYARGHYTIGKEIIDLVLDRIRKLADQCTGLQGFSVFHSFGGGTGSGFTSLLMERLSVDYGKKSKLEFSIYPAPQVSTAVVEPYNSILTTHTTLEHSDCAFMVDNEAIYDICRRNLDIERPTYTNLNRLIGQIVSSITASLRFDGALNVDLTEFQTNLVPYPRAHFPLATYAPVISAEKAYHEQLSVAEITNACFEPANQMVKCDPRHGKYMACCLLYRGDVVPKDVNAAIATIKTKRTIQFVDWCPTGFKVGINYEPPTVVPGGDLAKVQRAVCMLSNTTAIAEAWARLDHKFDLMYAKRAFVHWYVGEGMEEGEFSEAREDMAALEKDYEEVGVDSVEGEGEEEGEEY
T1 sequence (P02554 whole entry): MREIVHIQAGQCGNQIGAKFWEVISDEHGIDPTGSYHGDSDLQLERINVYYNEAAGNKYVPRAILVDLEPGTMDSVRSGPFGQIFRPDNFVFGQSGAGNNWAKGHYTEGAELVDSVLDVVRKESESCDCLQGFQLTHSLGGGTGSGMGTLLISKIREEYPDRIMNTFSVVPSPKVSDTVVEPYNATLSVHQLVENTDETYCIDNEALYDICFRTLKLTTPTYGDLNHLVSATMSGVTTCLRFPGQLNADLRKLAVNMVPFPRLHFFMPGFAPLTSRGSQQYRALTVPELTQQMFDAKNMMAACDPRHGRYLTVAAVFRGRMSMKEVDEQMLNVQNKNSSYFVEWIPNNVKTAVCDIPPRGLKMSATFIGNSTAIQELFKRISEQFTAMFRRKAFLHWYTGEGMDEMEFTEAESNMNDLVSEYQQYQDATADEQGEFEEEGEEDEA

Structure (SMILES): CC(=O)O[C@H]1C(=O)[C@@]2(C)[C@H]([C@H](OC(=O)c3ccccc3)[C@]3(O)C[C@H](OC(=O)[C@H](O)[C@@H](NC(=O)c4ccccc4)c4ccccc4)C(C)=C1C3(C)C)[C@]1(OC(C)=O)CO[C@@H]1C[C@@H]2O [paclitaxel]
- tubulin polymerization: the kinetics of tubulin polymerization is enhanced and the polymerization equilibrium shifts towards polymerized tubulin
